# The supplement of paper PMC10307832
# Key:
# Experiment in all cases: relative viability (nuclei count vs DMSO), 5 days (fraction); higher = more cells survive
# Bortezomib + Lapatinib = compound: CC(C)C[C@H](NC(=O)[C@H](Cc1ccccc1)NC(=O)c1cnccn1)B(O)O [Bortezomib] + CS(=O)(=O)CCNCc1ccc(-c2ccc3ncnc(Nc4ccc(OCc5cccc(F)c5)c(Cl)c4)c3c2)o1 [Lapatinib] (partner 2 µM)
# Method in brief: (§1)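 Each reported value is a median over duplicate plates. It expresses relative viability: treated-well nuclei count divided by vehicle-well nuclei count. Lung cancer cell lines in 1536-well plates were dosed by pin tool a day after seeding, alone with one drug or with a fixed anchor-drug dose plus five library-drug doses (not always all listed) in √10 steps, and nuclei were counted after 5 days.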
# Bortezomib + Alpelisib = compound: CC(C)C[C@H](NC(=O)[C@H](Cc1ccccc1)NC(=O)c1cnccn1)B(O)O [Bortezomib] + Cc1nc(NC(=O)N2CCC[C@H]2C(N)=O)sc1-c1ccnc(C(C)(C)C(F)(F)F)c1 [Alpelisib] (partner 2 µM)
# Method in brief: as §1
# Obatoclax + Alpelisib = compound: COC1=CC(c2cc3ccccc3[nH]2)=N/C1=C\c1[nH]c(C)cc1C [Obatoclax] + Cc1nc(NC(=O)N2CCC[C@H]2C(N)=O)sc1-c1ccnc(C(C)(C)C(F)(F)F)c1 [Alpelisib] (partner 2 µM)
# Method in brief: as §1
# Obatoclax + Dasatinib = compound: COC1=CC(c2cc3ccccc3[nH]2)=N/C1=C\c1[nH]c(C)cc1C [Obatoclax] + Cc1nc(Nc2ncc(C(=O)Nc3c(C)cccc3Cl)s2)cc(N2CCN(CCO)CC2)n1 [Dasatinib] (partner 0.075 µM)
# Method in brief: as §1
Cell Line,relative viability (Bortezomib + Lapatinib; first compound 0.0002 µM),relative viability (Bortezomib + Lapatinib; first compound 0.000632 µM),relative viability (Bortezomib + Lapatinib; first compound 0.002 µM),relative viability (Bortezomib + Lapatinib; first compound 0.006325 µM),relative viability (Bortezomib + Lapatinib; first compound 0.02 µM),relative viability (Bortezomib + Alpelisib; first compound 0.0002 µM),relative viability (Bortezomib + Alpelisib; first compound 0.000632 µM),relative viability (Bortezomib + Alpelisib; first compound 0.002 µM),relative viability (Bortezomib + Alpelisib; first compound 0.006325 µM),relative viability (Bortezomib + Alpelisib; first compound 0.02 µM),relative viability (Obatoclax + Alpelisib; first compound 0.01 µM),relative viability (Obatoclax + Alpelisib; first compound 0.03162 µM),relative viability (Obatoclax + Alpelisib; first compound 0.3162 µM),relative viability (Obatoclax + Alpelisib; first compound 1 µM),relative viability (Obatoclax + Dasatinib; first compound 0.01 µM),relative viability (Obatoclax + Dasatinib; first compound 0.03162 µM),relative viability (Obatoclax + Dasatinib; first compound 0.3162 µM),relative viability (Obatoclax + Dasatinib; first compound 1 µM),relative viability (Obatoclax + Alpelisib; first compound 0.1 µM),relative viability (Obatoclax + Dasatinib; first compound 0.1 µM)
NCI-H1792,0.797,0.862,0.967,0.929,0.797,0.576,0.646,0.579,0.714,0.319,0.746,0.658,0.638,0.781,0.867,0.8,0.72,0.962,,
H3255,0.261,0.209,0.24,0.191,0.179,0.688,0.696,0.479,0.156,0.163,0.611,0.725,0.631,0.55,0.301,0.323,0.348,0.302,0.732,0.422
HCC-78,0.899,0.791,0.715,0.826,0.153,0.331,0.359,0.258,0.136,0.148,0.314,0.35,0.26,0.321,0.48,0.406,0.324,0.418,,0.419
NCI-H2405,0.817,,1.01,0.112,0.121,0.812,,0.336,0.134,0.16,0.806,0.891,0.777,0.711,0.218,0.197,0.205,0.22,,
NCI-H3122,0.943,1.01,1.01,0.902,0.202,0.796,0.718,0.798,0.59,0.17,0.787,0.812,0.707,0.751,0.925,0.843,0.674,0.766,0.792,0.798
NCI-H1563,0.809,0.869,0.684,0.506,0.481,0.882,0.848,0.844,0.505,0.489,0.917,0.922,0.867,0.791,0.457,0.437,0.457,0.469,0.934,0.453
PC-3 [JPC-3],0.469,0.453,0.49,0.364,0.16,1.03,1.04,0.786,0.901,0.134,0.968,1.01,0.975,1.1,0.963,1.02,1.01,0.943,0.999,1.01
NCI-H1993,0.69,0.77,0.935,0.51,0.497,0.697,0.617,0.708,0.462,0.484,0.704,0.648,0.667,0.6,0.616,0.549,0.499,0.395,0.682,0.748
LOU-NH91,0.795,0.704,0.454,0.334,0.287,0.72,0.628,0.395,0.309,0.305,0.741,0.651,0.643,0.636,0.557,0.511,0.486,0.51,0.66,0.379
SK-MES-1,0.487,0.45,0.506,0.423,0.214,0.86,0.723,0.825,0.475,0.206,0.828,0.785,0.824,0.645,0.356,0.48,0.362,0.267,1.01,0.394
NCI-H1915,0.94,0.944,0.932,0.973,0.0577,1.05,1.03,0.892,0.81,0.0434,1.05,0.965,1.08,1.05,0.314,0.271,0.329,0.282,0.993,0.318
NCI-H1734,0.977,0.99,1.32,0.21,0.112,0.706,0.732,0.612,0.154,0.113,0.682,0.619,0.57,0.511,0.493,0.287,0.375,0.2,,0.427
NCI-H2170,0.253,0.266,0.306,0.266,0.2,0.637,0.687,0.904,0.232,0.14,0.777,0.749,0.724,0.683,0.626,0.617,0.529,0.677,0.825,0.528
HCC-15,0.824,0.943,0.817,0.38,0.0867,0.845,0.911,0.833,0.307,0.0846,0.844,0.777,0.856,0.609,0.574,0.589,0.626,0.368,0.827,0.533
SK-LU-1,0.781,0.894,0.497,0.13,0.146,1.09,0.963,0.551,0.154,0.149,0.825,0.984,0.355,0.29,0.184,0.19,0.157,0.141,0.779,0.141
NCI-H2023,0.521,0.822,0.773,0.144,0.0649,0.525,0.612,0.74,0.383,0.0813,0.603,0.667,0.605,0.334,0.518,0.548,0.412,0.194,0.578,0.53
HCC-366,0.861,1.01,1.03,0.875,0.0176,0.467,0.316,0.409,0.339,0.0134,0.382,0.363,0.396,0.233,0.667,0.574,0.574,0.533,0.366,0.39
NCI-H1355,0.948,0.906,1.2,0.6,0.134,0.826,0.783,0.685,0.137,0.126,0.866,0.905,0.681,0.658,0.836,0.675,0.68,0.535,0.795,0.538
SW 1573,1.03,1.09,1.14,0.308,0.0835,0.833,0.774,0.813,0.164,0.0782,0.789,0.701,0.672,0.556,0.413,0.454,0.134,0.136,0.946,0.53
NCI-H661,0.458,0.512,0.406,0.297,0.18,0.582,0.501,0.625,0.602,0.216,0.643,0.507,0.458,0.84,0.875,0.846,0.762,0.4,0.261,0.427
LU99A,0.939,,1.11,0.811,0.171,0.424,,0.466,0.224,0.141,0.626,0.641,0.3,0.2,0.471,0.568,0.434,0.261,0.567,0.575
LCLC-97TM1,0.651,0.701,0.749,0.248,0.118,0.245,0.242,0.113,0.11,0.114,0.27,0.232,0.227,0.293,0.928,0.746,0.842,0.682,0.283,0.916
LC-2-ad,0.73,,0.928,0.258,0.1,0.838,,0.898,0.0898,0.0932,0.892,0.931,0.477,0.655,0.696,0.504,0.394,0.463,0.884,0.507
NCI-H1395,0.998,0.79,0.449,0.499,0.28,1.15,1.06,0.387,0.411,0.393,1.14,1.2,0.954,0.474,0.417,0.416,0.412,0.432,0.982,0.399
NCI-H2228,0.986,0.816,0.438,0.115,0.119,0.796,0.748,0.411,0.111,0.102,0.662,0.601,0.436,0.27,0.499,0.595,0.351,0.148,0.629,0.571
HOP-62,0.953,1.01,1.04,0.283,0.0578,0.938,1.08,0.33,0.0928,0.067,0.903,0.771,1.02,1.21,0.718,0.64,0.787,0.534,0.951,0.439
NCI-H2347,0.922,1.05,0.942,0.849,0.37,0.924,0.968,0.706,0.248,0.278,1.02,0.994,1.01,0.93,0.305,0.281,0.308,0.324,0.841,
